Data reported in patent US20200399262A1, “COMPOUNDS FOR INHIBITING PROTEIN DEGRADATION AND METHODS OF USE THEREOF IN THE TREATMENT OF CANCER” (PI Therapeutics Ltd, priority 2018, published 2020).
Converted amounts (≈) assume the structure as drawn.

Legend:
NCI-H23 = assay: NCI60 screen cytotoxicity; type: cell-based; conditions: Homo sapiens, Lung cancer, read-out: Compound B1 EC50
[1] = Kinetic solubility by differential UV absorbance; type: physicochemical; conditions: aqueous buffer, kinetic from dmso stock; DMSO stock diluted in PBS, OD before and after centrifugation
Description: FIG. 3A-3B depict the kinetic solubility of Compound B1 (FIG. 3A) and Compound E1 (FIG. 3B) as measured by differential UV absorbance of the compounds, as performed before and after centrifugation. Soluble concentrations were determined when OD was equivalent between centrifuged and non-centrifuged fractions. Compounds were dissolved from co-solvent stock, and further serially 2-fold diluted in PBS. OD was measured at the maximal absorbance for each compound before (BC) and after (AC) centrifugation, using Spark 20M, Tecan.
Kinetic solubility quantification. Compound B1/Compound E1 DMSO stock was diluted with PBS by serial 2-fold dilutions. Then, the samples were centrifuged for 5 minutes at 17,000 g to precipitate any insoluble compound. Each sample was tested at a single wave length (Compound B1 at […]; Compound E1 at […]) in duplicate before and after centrifugation to assess solubility of the compound. Soluble concentrations were determined when optical density (OD) was equivalent between centrifuged and non-centrifuged fractions.
Kinetic solubility of all Compounds was determined by differential UV absorbance before and after centrifugation. […] Solubility concentration was determined when OD was equivalent between centrifuged and non-centrifuged fractions (FIG. 3A-3B).

SK-MEL-28 = assay: NCI60 screen cytotoxicity; type: cell-based; conditions: Homo sapiens, Melanoma, read-out: Compound B1 EC50
SF-539 = assay: NCI60 screen cytotoxicity; type: cell-based; conditions: Homo sapiens, CNS, read-out: Compound B1 EC50
A-549 = assay: NCI60 screen cytotoxicity; type: cell-based; conditions: Homo sapiens, A549, Lung cancer, read-out: Compound B1 EC50
CCRF-CEM = assay: NCI60 screen cytotoxicity; type: cell-based; conditions: Homo sapiens, Leukemia, read-out: Compound B1 EC50
HL-60 = assay: NCI60 screen cytotoxicity; type: cell-based; conditions: Homo sapiens, Leukemia, read-out: Compound B1 EC50
UACC-62 = assay: NCI60 screen cytotoxicity; type: cell-based; conditions: Homo sapiens, Melanoma, read-out: Compound B1 EC50
LOX IMVI = assay: NCI60 screen cytotoxicity; type: cell-based; conditions: Homo sapiens, Melanoma, read-out: Compound B1 EC50
OVCAR-8 = assay: NCI60 screen cytotoxicity; type: cell-based; conditions: Homo sapiens, Ovarian cancer, read-out: Compound B1 EC50
[2] = test system: autophagic vacuoles in MM1.S cells; assay: Autophagy quantification with CYTO-ID dye, flow cytometry; type: cell-based; conditions: 0.2 μM, 5 hours, vs vehicle
Description: MM1.S cells were treated with 0.2 μM Compound B1 or vehicle (DMSO) for 5 h. Detection of autophagy vesicles was done by CYTO-ID® green autophagy dye that selectively labels autophagic vacuoles. The samples were analyzed using flow cytometer and the data were plotted on histogram: cell counts vs. FITC fluorescence intensity.
Autophagy Quantification: Quantification of autophagosomes were done with CytoID (ENZO). CYTO-ID® Autophagy Detection Kit measures autophagic vacuoles and monitors autophagic flux in live cells using a dye that selectively labels autophagic vacuoles. The probe is a cationic amphiphilic tracer dye that rapidly partitions into cells in a similar manner as drugs that induce phospholipidosis. MM1.S cells were treated with Compound B1 or vehicle for 5 hours. Following treatment period the cells were harvested and stained with CytoID dye according to manufacturer instructions. Autophagosomes were analyzed and quantified using flow cytometer (Miltenyi). Data of cell counts were plotted as FITC (FL1) fluorescence intensity.

HOP-62 = assay: NCI60 screen cytotoxicity; type: cell-based; conditions: Homo sapiens, Lung cancer, read-out: Compound B1 EC50
BT-549 = assay: NCI60 screen cytotoxicity; type: cell-based; conditions: Homo sapiens, Breast cancer, read-out: Compound B1 EC50
ACHN = assay: NCI60 screen cytotoxicity; type: cell-based; conditions: Homo sapiens, Renal cancer, read-out: Compound B1 EC50
SK-OV-3 = assay: NCI60 screen cytotoxicity; type: cell-based; conditions: Homo sapiens, Ovarian cancer, read-out: Compound B1 EC50
HOP-92 = assay: NCI60 screen cytotoxicity; type: cell-based; conditions: Homo sapiens, Lung cancer, read-out: Compound B1 EC50
SNB-75 = assay: NCI60 screen cytotoxicity; type: cell-based; conditions: Homo sapiens, CNS, read-out: Compound B1 EC50
SK-MEL-5 = assay: NCI60 screen cytotoxicity; type: cell-based; conditions: Homo sapiens, Melanoma, read-out: Compound B1 EC50
HT-29 = assay: NCI60 screen cytotoxicity; type: cell-based; conditions: Homo sapiens, Colon cancer, read-out: Compound B1 EC50
OVCAR-3 = assay: NCI60 screen cytotoxicity; type: cell-based; conditions: Homo sapiens, Ovarian cancer, read-out: Compound B1 EC50
K-562 = assay: NCI60 screen cytotoxicity; type: cell-based; conditions: Homo sapiens, K562, Leukemia, read-out: Compound B1 EC50
NCI-H460 = assay: NCI60 screen cytotoxicity; type: cell-based; conditions: Homo sapiens, Lung cancer, read-out: Compound B1 EC50
NCI-H522 = assay: NCI60 screen cytotoxicity; type: cell-based; conditions: Homo sapiens, Lung cancer, read-out: Compound B1 EC50
PC-3 = assay: NCI60 screen cytotoxicity; type: cell-based; conditions: Homo sapiens, Prostate cancer, read-out: Compound B1 EC50

## CN(C)CC(=O)NCC(=O)N1C/C(=C\c2ccc(C#N)cc2)C(=O)/C(=C/c2ccc(C#N)cc2)C1 [Compound B1]
NCI-H23
  EC50: < 300 nM
[1]
  solubility kinetic: 50 µM (≈ 23.4 µg/mL)
SK-MEL-28
  EC50: 300 to 1000 nM
SF-539
  EC50: 300 to 1000 nM
A-549
  EC50: 300 to 1000 nM
CCRF-CEM
  EC50: < 300 nM
HL-60
  EC50: < 300 nM
UACC-62
  EC50: 300 to 1000 nM
LOX IMVI
  EC50: < 300 nM
OVCAR-8
  EC50: < 300 nM
[2]
  autophagosomal vesicles (CYTO-ID fluorescence): significantly lower fluorescent dye then vehicle treated cells
HOP-62
  EC50: < 300 nM
BT-549
  EC50: < 300 nM
ACHN
  EC50: < 300 nM
SK-OV-3
  EC50: < 300 nM
HOP-92
  EC50: 300 to 1000 nM
SNB-75
  EC50: 300 to 1000 nM
SK-MEL-5
  EC50: 300 to 1000 nM
HT-29
  EC50: 300 to 1000 nM
OVCAR-3
  EC50: < 300 nM
K-562
  EC50: < 300 nM
NCI-H460
  EC50: < 300 nM
NCI-H522
  EC50: < 300 nM
PC-3
  EC50: < 300 nM
